The record followed here is US10689354B2, “Aminoazole derivative” (Teijin Pharma Limited, priority 2015, dated 2020).

Some results are limits rather than exact numbers.

Experiment [1] deals with T1, human androgen receptor (Homo sapiens, UniProt P10275).
T1 construct: expressed in transfected cells; host or cells: HEK293
T1 sequence (P10275 1-920): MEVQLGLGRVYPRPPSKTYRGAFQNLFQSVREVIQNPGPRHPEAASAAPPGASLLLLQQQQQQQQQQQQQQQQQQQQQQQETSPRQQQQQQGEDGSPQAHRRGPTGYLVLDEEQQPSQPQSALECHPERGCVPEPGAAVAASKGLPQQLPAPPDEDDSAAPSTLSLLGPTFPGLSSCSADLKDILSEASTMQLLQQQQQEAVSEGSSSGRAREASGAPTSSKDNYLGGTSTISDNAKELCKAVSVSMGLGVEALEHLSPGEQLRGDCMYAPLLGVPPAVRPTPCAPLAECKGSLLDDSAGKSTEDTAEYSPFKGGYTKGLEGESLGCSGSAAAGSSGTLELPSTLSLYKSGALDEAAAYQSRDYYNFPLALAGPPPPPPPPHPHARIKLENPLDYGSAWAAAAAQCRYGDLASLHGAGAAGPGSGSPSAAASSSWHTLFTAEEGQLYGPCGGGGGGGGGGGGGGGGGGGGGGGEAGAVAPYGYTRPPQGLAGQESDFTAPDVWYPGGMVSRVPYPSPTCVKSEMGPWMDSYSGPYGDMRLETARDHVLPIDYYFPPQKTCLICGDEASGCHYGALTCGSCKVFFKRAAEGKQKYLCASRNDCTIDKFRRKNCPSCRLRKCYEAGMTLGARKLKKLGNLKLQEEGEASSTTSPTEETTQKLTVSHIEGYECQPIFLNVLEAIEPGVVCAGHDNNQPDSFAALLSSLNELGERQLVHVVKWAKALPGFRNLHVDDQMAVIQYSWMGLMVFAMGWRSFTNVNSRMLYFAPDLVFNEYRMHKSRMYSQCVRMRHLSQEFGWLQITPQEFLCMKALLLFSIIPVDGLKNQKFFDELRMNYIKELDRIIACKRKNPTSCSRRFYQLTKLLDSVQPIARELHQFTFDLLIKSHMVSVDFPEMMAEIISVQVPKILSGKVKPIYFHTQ
Kind of experiment: Reporter assay of an androgen receptor responsive sequence (luciferase, transiently transfected HEK293 cells). Type of experiment: cell-based. To be noted: 24 hours incubation, relative to activity of 100 nM DHT, read-out: AR transcriptive activity (pEC50) (converted). The procedure, abridged:
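HEK293 cells transiently transfected for 3 h with ARE-firefly luciferase, full-length human AR and TK-Renilla plasmids, then exposed to compound for 24 h at 37 °C in 5% charcoal-treated FBS/DMEM. Dual-Glo luminescence read; pEC50 from 4-parameter fit relative to 100 nM DHT.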
(Reporter assays use an easily measured gene product as a stand-in for the process of interest.)

The target in experiment [2] is T2, androgen receptor (AR-LBD) (Rattus norvegicus, UniProt P15207).
T2 construct: 5 μL of 2×AR-LBD/Fluoromone AL Red Complex contained in the kit; purchased Invitrogen
T2 sequence (P15207 651-882 limits assumed): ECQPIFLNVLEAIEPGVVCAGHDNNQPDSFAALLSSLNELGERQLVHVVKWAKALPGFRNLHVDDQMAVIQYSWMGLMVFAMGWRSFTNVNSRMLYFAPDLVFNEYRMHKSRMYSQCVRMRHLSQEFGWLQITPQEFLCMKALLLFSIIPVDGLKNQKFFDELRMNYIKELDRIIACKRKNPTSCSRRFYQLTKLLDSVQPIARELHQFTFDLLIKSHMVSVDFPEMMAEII
Kind of experiment: Evaluation of androgen receptor affinity (PolarScreen Androgen Receptor Competitor Assay Kit, Red; fluorescence polarization). Particulars: 22° C. for 5 hours, relative to binding rate of 1 μM DHT, read-out: AR affinity (pEC50) (converted). The procedure, abridged:
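Fluorescence polarization read-out after 5 h at 22° C of compound with a red-fluorophore-labelled AR-LBD complex. Displacement is scaled against 1 μM DHT, and the log reciprocal of the concentration reaching half that effect gives pEC50 via four-parameter curve fitting.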
For orientation: Polarisation of emitted light reports the rotation of a fluorescent probe.

On to `Cc1sc(N(CCc2cccc(C#N)c2)Cc2ccccc2)nc1C(=O)NS(C)(=O)=O` [Compound 672, 2-[benzyl-[2-(3-cyanophenyl)ethyl]amino]-5-methyl-N-methylsulfonyl-thiazole-4-carboxamide], for which the EC50 in experiment [1] is 1260 nM; in experiment [2], 251 nM.
The corresponding values for `Cc1sc(N(Cc2ccccc2)c2ccc3ccccc3c2)nc1C(=O)NS(C)(=O)=O` [Example 232, 2-[benzyl(2-naphthyl)amino]-5-methyl-N-methylsulfonyl-thiazole-4-carboxamide] are more than 10000 nM and 200 nM.
The corresponding values for `Cc1oc(N(Cc2ccccc2)c2ccc(C(F)(F)F)nc2)nc1C(=O)NS(C)(=O)=O` [Compound 620, 2-[benzyl-[6-(trifluoromethyl)-3-pyridyl]amino]-5-methyl-N-methylsulfonyl-oxazole-4-carboxamide] are more than 10000 nM and 631 nM.
On to `CCS(=O)(=O)NC(=O)c1nc(N(Cc2ccccc2)c2ccc(C#N)cc2)sc1C` [Compound 362, 2-(N-benzyl-4-cyano-anilino)-N-ethylsulfonyl-5-methyl-thiazole-4-carboxamide], for which the EC50 in experiment [1] was 251 nM; in experiment [2], 63.1 nM.
The like results for `Cc1sc(N(CCc2cccs2)Cc2ccccc2)nc1C(=O)NS(C)(=O)=O` [Example 310, 2-[benzyl-[2-(2-thienyl)ethyl]amino]-5-methyl-N-methylsulfonyl-thiazole-4-carboxamide] were, in that order, 2510 nM and 200 nM.
The corresponding values for `Cc1sc(N(Cc2cccc(OCc3ccccc3)c2)c2ccc(C#N)cc2)nc1C(=O)NS(C)(=O)=O` [Compound 59, 2-[N-[(3-benzyloxyphenyl)methyl]-4-cyano-anilino]-5-methyl-N-methylsulfonyl-thiazole-4-carboxamide] are more than 10000 nM and 31.6 nM.
`CCc1oc(N(Cc2ccc(Cl)c(Cl)c2)c2ccc(C#N)cc2)nc1C(=O)NS(C)(=O)=O` [Compound 633, 2-[4-cyano-N-[(3,4-dichlorophenyl)methyl]anilino]-5-ethyl-N-methylsulfonyl-oxazole-4-carboxamide]: the figures for the EC50 in experiment [1] and in experiment [2] were 126 nM and 31.6 nM, respectively.
The corresponding values for `Cc1sc(N(Cc2ccccc2F)c2ccc(C#N)cc2)nc1C(=O)NS(C)(=O)=O` [Compound 13, 2-[4-cyano-N-[(2-fluorophenyl)methyl]anilino]-5-methyl-N-methylsulfonyl-thiazole-4-carboxamide] are 316 nM and 50.1 nM.
The corresponding values for `Cc1sc(N(Cc2ccco2)c2ccc(C#N)cc2)nc1C(=O)NS(C)(=O)=O` [Compound 87, 2-[4-cyano-N-(2-furylmethyl)anilino]-5-methyl-N-methylsulfonyl-thiazole-4-carboxamide] are 1000 nM and 158 nM.
The like results for `Cc1sc(N(CCc2cccc(F)c2)Cc2ccccc2)nc1C(=O)NS(C)(=O)=O` [Compound 685, 2-[benzyl-[2-(3-fluorophenyl)ethyl]amino]-5-methyl-N-methylsulfonyl-thiazole-4-carboxamide] were, in that order, 316 nM and 50.1 nM.
For `COC[C@@H](C)Oc1ccc(CN(c2ccc(C#N)cc2)c2nc(C(=O)NS(C)(=O)=O)c(C)s2)cc1` [Compound 583, 2-[4-cyano-N-[[4-[(1R)-2-methoxy-1-methyl-ethoxy]phenyl]methyl]anilino]-5-methyl-N-methylsulfonyl-thiazole-4-carboxamide], the EC50 was 2000 nM in experiment [1] and 39.8 nM in experiment [2].
The like results for `Cc1sc(N(Cc2ccc(Cl)cc2F)c2ccc(C#N)cc2)nc1C(=O)NS(C)(=O)=O` [Compound 70, 2-[N-[(4-chloro-2-fluoro-phenyl)methyl]-4-cyano-anilino]-5-methyl-N-methylsulfonyl-thiazole-4-carboxamide] were, in that order, 63.1 nM and 31.6 nM.
The corresponding values for `CCc1oc(N(Cc2ccc(Br)c(Cl)c2)c2ccc(C#N)cc2)nc1C(=O)NS(C)(=O)=O` [Compound 650, 2-[N-[(4-bromo-3-chloro-phenyl)methyl]-4-cyano-anilino]-5-ethyl-N-methylsulfonyl-oxazole-4-carboxamide] are 200 nM and 31.6 nM.
The corresponding values for `Cc1sc(N(Cc2ccc(C(F)(F)F)nc2)c2ccc(C#N)cc2)nc1C(=O)NS(C)(=O)=O` [Compound 154, 2-[4-cyano-N-[[6-(trifluoromethyl)-3-pyridyl]methyl]anilino]-5-methyl-N-methylsulfonyl-thiazole-4-carboxamide] are 200 nM and 200 nM.
On to `Cc1sc(N(CCc2ccc(C#N)cc2)CC2CCCCC2)nc1C(=O)NS(=O)(=O)Cc1cccnc1` [Compound 725, 2-[2-(4-cyanophenyl)ethyl-(cyclohexylmethyl)amino]-5-methyl-N-(3-pyridylmethylsulfonyl)thiazole-4-carboxamide], for which the EC50 in experiment [1] is more than 10000 nM; in experiment [2], 100 nM.
The like results for `CS(=O)(=O)NC(=O)c1nc(N(Cc2ccc(F)cc2)c2ccc(C#N)cc2)sc1Cl` [Example 262, 5-chloro-2-[4-cyano-N-[(4-fluorophenyl)methyl]anilino]-N-methylsulfonyl-thiazole-4-carboxamide] were, in that order, 39.8 nM and 50.1 nM.
The corresponding values for `Cc1sc(N(Cc2ccccc2)c2ccc(Cl)cc2)nc1C(=O)NS(C)(=O)=O` [Compound 31, 2-(N-benzyl-4-chloro-anilino)-5-methyl-N-methylsulfonyl-thiazole-4-carboxamide] are 2510 nM and 100 nM.
In the case of `Cc1oc(N(CCc2ccc(C#N)cc2)Cc2ccc(Cl)cc2)nc1C(=O)NS(C)(=O)=O` [Compound 548, 2-[(4-chlorophenyl)methyl-[2-(4-cyanophenyl)ethyl]amino]-5-methyl-N-methylsulfonyl-oxazole-4-carboxamide], the EC50 was 126 nM in experiment [1] and 25.1 nM in experiment [2].
The like results for `COc1ccccc1CN(c1ccc(C#N)cc1)c1nc(C(=O)NS(C)(=O)=O)c(Cl)s1` [Example 270, 5-chloro-2-[4-cyano-N-[(2-methoxyphenyl)methyl]anilino]-N-methylsulfonyl-thiazole-4-carboxamide] were, in that order, 251 nM and 79.4 nM.
As for `CCc1oc(N(Cc2ccc(C(F)(F)F)cn2)c2ccc(C#N)cc2)nc1C(=O)NS(C)(=O)=O` [Compound 638, 2-[4-cyano-N-[[5-(trifluoromethyl)-2-pyridyl]methyl]anilino]-5-ethyl-N-methylsulfonyl-oxazole-4-carboxamide], the EC50 in experiment [1] was 3160 nM; in experiment [2] it was 200 nM.
Consider `Cc1sc(N(Cc2ccc(Cl)cc2OC(F)F)c2ccc(C#N)cc2)nc1C(=O)NS(C)(=O)=O` [Example 193, 2-[N-[[4-chloro-2-(difluoromethoxy)phenyl]methyl]-4-cyano-anilino]-5-methyl-N-methylsulfonyl-thiazole-4-carboxamide], for which the results for the EC50 in experiment [1] and in experiment [2] were 501 nM and 31.6 nM, respectively.
The like results for `Cc1sc(N(CCc2ccc(C#N)cc2)Cc2ccc(OC(F)(F)F)cc2)nc1C(=O)NS(=O)(=O)Cc1ccncc1` [Compound 742, 2-[2-(4-cyanophenyl)ethyl-[[4-(trifluoromethoxy)phenyl]methyl]amino]-5-methyl-N-(4-pyridylmethylsulfonyl)thiazole-4-carboxamide] were, in that order, 2000 nM and 25.1 nM.
Consider `COCCCS(=O)(=O)NC(=O)c1nc(N(Cc2ccc(Br)cc2)c2ccc(C#N)cc2)sc1C` [Example 191, 2-[N-[(4-bromophenyl)methyl]-4-cyano-anilino]-N-(3-methoxypropylsulfonyl)-5-methyl-thiazole-4-carboxamide], for which the EC50 in experiment [1] was 50.1 nM; in experiment [2], 31.6 nM.
